pIC50: −log10 of the molar value.
Key:
[1] = biological target: T1, human EP2 (PTGER2) (Homo sapiens, UniProt P43116); assay: EP2 antagonist assay (HEK-293 CNG membrane potential cAMP assay / 293T SEAP reporter assay, PGE2-stimulated); type: cell-based; conditions: EP2 antagonist activity; concentration for 50% inhibition of signal compared to DMSO
T1 construct: Cayman Chemical (Human EP2 Reporter Assay Kit)
Procedure, shortened: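 Two formats. In a CRE-SEAP reporter assay, reverse-transfected 293T cells received compound with PGE2 (13 nM final) for 6-8 h, then luminescence was read. In the ACTOne CNG format, HEK-293 cells were preincubated with compound for 15 min at RT, stimulated with 5 nM PGE2 for 30 min, and read by membrane-potential dye fluorescence. IC50 was taken versus DMSO.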

[2] = biological target: T2, human EP4 (EP4R) (Homo sapiens, UniProt P35408); assay: EP4 antagonist assay (HEK-293 CNG membrane potential cAMP assay / 293T SEAP reporter assay, PGE2-stimulated); type: cell-based; conditions: EP4 antagonist activity; concentration for inhibition of signal compared to DMSO
T2 construct: Cayman Chemical (Human EP4 Reporter Assay Kit)
Text: 1. The HEK-293 CNG (Cyclic Nucleotide Gated) cell line expressing a modified CNG channel that leads to cell membrane depolarization in response to elevated intracellular cAMP levels, which can be measured using a fluorescent membrane potential dye, was engineered to express human EP2 (PTGER2) or EP4 (EP4R). The resulting cell line ACTOne™ PTGER2 or ACTOne™ EP4R as well as the fluorescent membrane potential dye were purchased from eEnzyme (Gaithersburg, MD, US) and used in this assay. Briefly, cells were plated at 1.2×10^4 cells/well in 20 μL DMEM supplemented with 2% Fetal Bovine Serum (FBS, VWR International), 1x Penicillin/Streptomycin (GenClone), 0.2 μg/mL puromycin (InvivoGen) and 50 μg/mL G418 (InvivoGen) on a 384 well plate (Greiner). The next day, cells were dye-loaded with 20 μL/well of 1x Dye-loading solution (eENZYME) following the manufacturer's instruction. After 2 hours of incubation at room temperature (RT) in the dark, a pre-read was made to obtain the background signals using CLARIOstar plate reader (BMG LABTECH, Germany) with the following filter settings: excitation=530/20 nm, emission=590/20 nm. Next, a serial dilution of compound (plus a DMSO control) were added to the plate (5 μL/well) and the reaction was incubated at RT for 15 min before adding 5 μL of PGE2 to every well for a final concentration of 5 nM. All wells were duplicated. The plate was then further incubated at RT for 30 min prior to a final read with the same machine settings. Background-subtracted signals were used to calculate IC50 values.
2. Human EP2 and EP4 Reporter Assay Kits were purchased from Cayman Chemical (Ann Arbor, MI, USA). The assay was performed following the provided User Manual. Briefly, a reverse transfection was performed by seeding 6.0×10^4 of 293T cells (ATCC) to each well of the provided Strip Plate coated with a proprietary transfection complex containing DNA constructs for expressing human EP2 or EP4 and a cAMP response element regulated secreted alkaline phosphatase (SEAP) reporter, in 200 μL DMEM supplemented with 2% FBS and incubated for 20-24 hours at 37° C. with 5% CO2. After the incubation, the culture medium was carefully removed, and the cells were replenished with 150 μL pre-warmed serum-free medium. PGE2 and test compounds were prepared together at 4x the desired final concentration, and 50 μL was added to each assigned well with the final concentration of 13 nM and 2 nM PGE2 for EP2 and EP4 assay, respectively. After 6-8 hours of incubation, 10 μL media from each well was transferred to corresponding well of a new plate, which was then sealed and incubated at 65° C. for 30 min. The plate was then cooled down to RT and 50 μL SEAP substrate was added to each well. Luminescence signal was measured using a CLARIOstar plate reader.
The IC50 value was determined as the concentration for […] inhibition of signal compared to DMSO (A: IC50≤100 nM; B: IC50 between 100 nM and 1,000 nM; C: IC50≥1,000 nM).

T2 sequence (P35408 whole entry): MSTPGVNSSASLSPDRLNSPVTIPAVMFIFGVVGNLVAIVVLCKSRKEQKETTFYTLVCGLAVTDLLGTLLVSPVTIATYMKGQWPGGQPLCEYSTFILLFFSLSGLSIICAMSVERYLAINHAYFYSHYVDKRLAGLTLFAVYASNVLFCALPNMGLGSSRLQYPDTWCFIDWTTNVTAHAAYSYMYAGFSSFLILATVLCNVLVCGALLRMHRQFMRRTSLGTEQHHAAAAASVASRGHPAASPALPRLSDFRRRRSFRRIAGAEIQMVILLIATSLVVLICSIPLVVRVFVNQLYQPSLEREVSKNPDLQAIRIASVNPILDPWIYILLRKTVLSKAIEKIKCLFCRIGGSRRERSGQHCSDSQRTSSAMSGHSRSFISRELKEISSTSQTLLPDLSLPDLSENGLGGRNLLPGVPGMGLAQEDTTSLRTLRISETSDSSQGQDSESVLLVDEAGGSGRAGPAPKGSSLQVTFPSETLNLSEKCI
T1 sequence (P43116 whole entry): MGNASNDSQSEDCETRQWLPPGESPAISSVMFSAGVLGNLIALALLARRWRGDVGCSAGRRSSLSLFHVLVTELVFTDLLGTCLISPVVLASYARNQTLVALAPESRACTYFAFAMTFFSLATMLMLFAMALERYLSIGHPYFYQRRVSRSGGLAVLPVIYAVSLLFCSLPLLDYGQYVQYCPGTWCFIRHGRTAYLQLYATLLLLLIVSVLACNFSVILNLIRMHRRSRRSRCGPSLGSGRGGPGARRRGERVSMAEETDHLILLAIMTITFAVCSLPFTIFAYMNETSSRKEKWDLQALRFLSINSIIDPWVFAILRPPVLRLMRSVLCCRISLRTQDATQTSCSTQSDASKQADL

| pIC50 [1] | pIC50 [2] | SMILES |
| --- | --- | --- |
| > 7.00 | ≥ 7.00 | O=C(O)c1ccc(CNC(=O)c2cc(-c3ccc(F)cc3)cc3ccn(Cc4ccc(C(F)(F)F)cc4)c23)cc1 [Example 1, 4-((5-(4-fluorophenyl)-1-(4-(trifluoromethyl)benzyl)-1H-indole-7-carboxamido)methyl)benzoic acid] |
| > 7.00 | ≥ 7.00 | O=C(O)c1ccc(CNC(=O)c2cc(-c3ccccc3)cc3ccn(Cc4ccc(C(F)(F)F)cc4)c23)cc1 [Example 2, 4-((5-phenyl-1-(4-(trifluoromethyl)benzyl)-1H-indole-7-carboxamido)methyl)benzoic acid] |
| > 7.00 | ≥ 7.00 | N#Cc1cccc(-c2cc(C(=O)NCc3ccc(C(=O)O)cc3)c3c(ccn3Cc3ccc(C(F)(F)F)cc3)c2)c1 [Example 7, 4-((5-(3-cyanophenyl)-1-(4-(trifluoromethyl)benzyl)-1H-indole-7-carboxamido)methyl)benzoic acid] |
| > 7.00 | ≥ 7.00 | O=C(O)c1ccc(CNC(=O)c2cc(-c3cc(F)cc(F)c3)cc3ccn(Cc4ccc(C(F)(F)F)cc4)c23)cc1 [Example 9, 4-((5-(3,5-difluorophenyl)-1-(4-(trifluoromethyl)benzyl)-1H-indole-7-carboxamido)methyl)benzoic acid] |
| > 7.00 | ≥ 7.00 | O=C(O)c1ccc(C2(NC(=O)c3ccc(Nc4ccccc4)c4ccn(Cc5ccc(C(F)(F)F)cc5)c34)CC2)cc1 [Example 44, 4-(1-(4-(phenylamino)-1-(4-(trifluoromethyl)benzyl)-1H-indole-7-carboxamido)cyclopropyl)benzoic acid] |
| > 7.00 | ≥ 7.00 | C[C@H](NC(=O)c1cc(-c2ccc(F)cc2)cc2ccn(Cc3ccc(C(F)(F)F)cc3)c12)c1ccc(C(=O)O)cc1 [Example 50, (S)-4-(1-(5-(4-fluorophenyl)-1-(4-(trifluoromethyl)benzyl)-1H-indole-7-carboxamido)ethyl) benzoic acid] |
| > 7.00 | ≥ 7.00 | C[C@H](NC(=O)c1cc(-c2ccccc2)cc2ccn(Cc3ccc(C(F)(F)F)cc3)c12)c1ccc(C(=O)O)cc1 [Example 51, (S)-4-(1-(5-phenyl-1-(4-(trifluoromethyl)benzyl)-1H-indole-7-carboxamido)ethyl) benzoic acid] |
| > 7.00 | ≥ 7.00 | C[C@H](NC(=O)c1cc(-c2cccc(C#N)c2)cc2ccn(Cc3ccc(C(F)(F)F)cc3)c12)c1ccc(C(=O)O)cc1 [Example 52, (S)-4-(1-(5-(3-cyanophenyl)-1-(4-(trifluoromethyl)benzyl)-1H-indole-7-carboxamido)ethyl) benzoic acid] |
| > 7.00 | 6.00 to 7.00 | O=C(O)c1ccc(CNC(=O)c2ccc(Nc3ccccc3)c3ccn(Cc4ccc(C(F)(F)F)cc4)c23)cc1 [Example 57, 4-((4-(phenylamino)-1-(4-(trifluoromethyl)benzyl)-1H-indole-7-carboxamido)methyl)benzoic acid] |
| > 7.00 | 6.00 to 7.00 | O=C(O)c1ccc(CNC(=O)c2ccc(Nc3cc(F)cc(F)c3)c3ccn(Cc4ccc(C(F)(F)F)cc4)c23)cc1 [Example 69, 4-((4-((3,5-difluorophenyl)amino)-1-(4-(trifluoromethyl)benzyl)-1H-indole-7-carboxamido)methyl)benzoic acid] |
| > 7.00 | ≥ 7.00 | C[C@H](NC(=O)c1ccc(Nc2ccccc2)c2ccn(Cc3ccc(C(F)(F)F)cc3)c12)c1ccc(C(=O)O)cc1 [Example 74, (S)-4-(1-(4-(phenylamino)-1-(4-(trifluoromethyl)benzyl)-1H-indole-7-carboxamido)ethyl)benzoic acid] |
| > 7.00 | ≥ 7.00 | COc1cccc(-c2cc(C(=O)NCc3ccc(C(=O)O)cc3)c3c(ccn3Cc3ccc(C(F)(F)F)cc3)c2)c1 [Example 76, 4-((5-(3-methoxyphenyl)-1-(4-(trifluoromethyl)benzyl)-1H-indole-7-carboxamido)methyl)benzoic acid] |
